Results: ChEMBL document CHEMBL1150178, “Two toxic kaurene glycosides from the burrs of Xanthium pungens” (J Nat Prod, 1990)

Tests used:
Mus musculus = assay: Toxicity in mouse at 3 mg/kg, ip; format: organism-based; design: dose 3 mg/kg, route intraperitoneal; settings: in vivo
Rattus norvegicus = assay: Toxicity in Wistar rat at 3 mg/kg; format: organism-based; design: dose 3 mg/kg; settings: in vivo

SMILES | Activity (Mus musculus) | Activity (Rattus norvegicus)
C=C1[C@@H]2CC[C@H]3[C@]4(C)C[C@H](O[C@@H]5O[C@H](CO)[C@@H](O)[C@H](O)[C@H]5OC(=O)CC(C)CC)CC(C(=O)O)(C(=O)O)[C@H]4CC[C@]3(C2)[C@H]1O (some centres undefined) | Toxic | Toxic
C=C1[C@@H]2CC[C@H]3[C@]4(C)C[C@H](O[C@@H]5O[C@H](CO)[C@@H](O)[C@H](O)[C@H]5OC(=O)CC(C)C)CC(C(=O)O)(C(=O)O)[C@H]4CC[C@]3(C2)[C@H]1O | Toxic | Toxic
